Results: patent publication US11834458B2, “Anti-cancer nuclear hormone receptor-targeting compounds” (Nuvation Bio Inc., priority 2021, dated 2023)
Like-named read-outs stand apart in the source and are kept apart here.

Assays:
LNCap cells = experiment: Cell viability assay, LNCap; format: cell-based; conditions: Homo sapiens, 144 h
Description: (§1) Cell viability assay: LNCap, 22Rv1, MCF7, MDAMB361, T47D, and IEC6 cells are seeded at a density of 500-2000 cells/well in 96 well plates, and a ‘T0’ (timepoint 0) was included along with the assay plate. The plates are then incubated at 37° C., 5% CO2 in a cell culture incubator overnight. On the next day, the ‘T0’ plate was assayed using CellTiterGlo (Promega, Inc) according to the manufacturer's instructions. The appropriate compounds are diluted in DMSO and added to the assay plate (final DMSO concentration of 0.1-0.2%) on the next day. The assay plates are incubated for 6 days at 37° C., 5% CO2. After the incubation period, the plates are assayed using CellTiterGlo (Promega, Inc) according to the manufacturer's instructions and luminescence was read on the EnVision plate reader. Inhibition of the tested compounds was determined by the following formula: Inhibition rate (%)=(1−(RLU compound−RLU day0)/(RLU control−RLU day0))*100%. GraphPadPrism was used to analyze the data and determine GI50/IC50 values.

22Rv1 cells = experiment: Cell viability assay, 22Rv1; format: cell-based; conditions: Homo sapiens
Description: as §1

IEC6 cells = experiment: Cell viability assay, IEC6; format: cell-based; conditions: Rattus norvegicus
Description: as §1

[1] = target: full-length androgen receptor (Homo sapiens (Human), UniProt P10275); experiment: AR antagonism assay; format: cell-based
Description: AR antagonism assay: To evaluate AR antagonist activity, test compound was added to the assay plate (top dose 10 μM, 3 fold serial dilution, 10 point dose response). HEK293 cells stably expressing the full-length androgen receptor were seeded at a density of 20,000 cells/well in the assay plate. The assay plate was then incubated at room temperature for 10 minutes and at 37° C., 5% CO2 for 20 minutes. Testosterone was added to the assay plate at 1 nM final concentration and the assay plate incubated at 37° C., 5% CO2 for 20 h. After the incubation period, Steady-glo was added to the assay plate and mixed at room temperature for 20 minutes on an orbital shaker, before reading out on the EnVision plate reader.

AR = AR (Homo sapiens (Human), UniProt P10275, T878A); experiment: AR binding assay
Description: AR binding assay: To assess AR binding, test compound (top dose 10 μM, 4 fold serial dilution, 8 point dose response) and control (progesterone) were transferred to the assay plate. Cytosol from LnCaP cells was added to the plate, followed by addition of radiolabeled ^3H-R1881 at a final concentration of 1 nM. The plate was sealed, and the reaction was incubated at 300 rpm at 4° C. for 24 hrs. Radioligand absorption buffer (10 mM Tris-HCl, pH 7.4; 1.5 mM EDTA; 1 mM DTT; 0.25% charcoal; 0.0025% dextran) was then added to the plate, mixed, and incubated at 4° C. for 15 minutes. The plate was then centrifuged at 3000 rpm for 30 minutes at 4° C. The supernatant was transferred to the scint-tube and Tri-carb was used for scintillation counting. The data was analyzed using GraphPadPrism v5.0 and binding IC50 was determined as the concentration where 50% inhibition of radioligand binding was observed.

T47D cells = experiment: Cell viability assay, T47D; format: cell-based; conditions: Homo sapiens, 144 h
Description: as §1

[2] = LNCap cells, 6 days, CellTiterGlo, read-out: LNCap (GI50)
[3] = 144 h, 22RV1 cells, 6 days, CellTiterGlo, read-out: 22RV1 (GI50)
[4] = 144 h, IEC-6 cells, 6 days, CellTiterGlo, read-out: IEC-6 (IC50)
[5] = cytosol from LnCaP cells, 3H-R1881 1 nM, 4° C. 24 hrs, read-out: AR binding
[6] = T47D, read-out: T47D (GI50, nM)
[7] = LNCaP, read-out: LNCap (GI50, nM)
[8] = IEC-6, 144 h, read-out: IEC-6 (IC50, nM)

Sequence of full-length androgen receptor (P10275 whole entry): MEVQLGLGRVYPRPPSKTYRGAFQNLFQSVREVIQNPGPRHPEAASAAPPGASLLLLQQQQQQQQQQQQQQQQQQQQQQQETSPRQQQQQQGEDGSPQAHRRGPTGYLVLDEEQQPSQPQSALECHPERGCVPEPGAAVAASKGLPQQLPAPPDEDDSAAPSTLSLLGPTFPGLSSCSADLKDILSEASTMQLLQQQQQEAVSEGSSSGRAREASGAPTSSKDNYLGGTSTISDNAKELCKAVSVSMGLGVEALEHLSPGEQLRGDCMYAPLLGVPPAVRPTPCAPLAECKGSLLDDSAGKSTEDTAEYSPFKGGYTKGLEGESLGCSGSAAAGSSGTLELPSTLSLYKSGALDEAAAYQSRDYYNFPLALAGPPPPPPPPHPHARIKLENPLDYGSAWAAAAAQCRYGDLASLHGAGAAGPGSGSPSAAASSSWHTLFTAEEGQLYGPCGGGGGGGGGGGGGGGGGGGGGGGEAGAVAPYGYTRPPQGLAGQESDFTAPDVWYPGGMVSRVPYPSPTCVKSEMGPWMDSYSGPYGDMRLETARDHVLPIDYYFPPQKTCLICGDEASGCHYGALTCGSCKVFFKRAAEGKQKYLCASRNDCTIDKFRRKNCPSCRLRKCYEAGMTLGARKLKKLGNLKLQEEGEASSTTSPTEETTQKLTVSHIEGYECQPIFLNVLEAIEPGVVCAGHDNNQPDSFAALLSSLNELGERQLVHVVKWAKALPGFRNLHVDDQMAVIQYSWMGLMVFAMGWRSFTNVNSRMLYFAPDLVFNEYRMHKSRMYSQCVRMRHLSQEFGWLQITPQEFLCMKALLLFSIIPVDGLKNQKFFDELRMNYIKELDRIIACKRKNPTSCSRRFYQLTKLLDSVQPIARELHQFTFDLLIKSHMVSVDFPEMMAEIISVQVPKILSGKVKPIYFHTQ
Sequence of AR (P10275 whole entry T878A): as the sequence (P10275 whole entry) above, with T878A counted along it

Row | SMILES | GI50 (LNCap cells; [2]) | IC50 (IEC6 cells; [4]) | IC50 [1] | GI50 (T47D cells; [6]) | GI50 (LNCap cells; [7]) | IC50 (IEC6 cells; [8]) | also measured
1 | CC[C@@]1(O)C(=O)OCc2c1cc1n(c2=O)Cc2cc3c(CN(C)C(=O)CO[C@H]4CC[C@H]5[C@@H]6CC[C@H]7CC(=O)CC[C@]7(C)[C@H]6CC[C@]45C)c(O)ccc3nc2-1 [Compound 25, 2-(((5S,8R,9S,10S,13S,14S,17S)-10,13-Dimethyl-3-oxohexadecahydro-1H-cyclopenta[a]phenanthren-17-yl)oxy)-N—(((S)-4-ethyl-4,9-dihydroxy-3,14-dioxo-3,4,12,14-tetrahydro-1H-pyrano[3′,4′:6,7]indolizino[1,2-b]quinolin-10-yl)methyl)-N-methylacetamide] | 10 to 500 nM | > 1000 nM |  |  |  |  | GI50 (22Rv1 cells; [3]): 10 to 500 nM
2 | CC[C@@]1(O)C(=O)OCc2c1cc1n(c2=O)Cc2cc3c(CN4CCN(C(=O)C5CCN(c6ccc(C(=O)N[C@H]7CC[C@H](Oc8ccc(C#N)c(Cl)c8)CC7)nn6)CC5)CC4)c(O)ccc3nc2-1 [Compound 14, N-((1r,4r)-4-(3-Chloro-4-cyanophenoxy)cyclohexyl)-6-(4-(4-(((S)-4-ethyl-4,9-dihydroxy-3,14-dioxo-3,4,12,14-tetrahydro-1H-pyrano[3′,4′:6,7]indolizino[1,2-b]quinolin-10-yl)methyl)piperazine-1-carbonyl)piperidin-1-yl)pyridazine-3-carboxamide] | 10 to 500 nM | > 1000 nM | 10 to 500 nM |  |  |  | IC50 (AR; [5]): 10 to 500 nM; GI50 (22Rv1 cells; [3]): 10 to 500 nM
3 | CC[C@@]1(O)C(=O)OCc2c1cc1n(c2=O)Cc2cc3c(CN(C)C)c(OC(=O)N4C[C@@H](C)N(CCCCCCN(C)c5ccc([C@H]6C[C@@]7(C)[C@@H](CC[C@]7(OC(C)=O)C(C)=O)[C@@H]7CCC8=CC(=O)CCC8=C76)cc5)C[C@@H]4C)ccc3nc2-1 [Compound 23, (S)-10-((Dimethylamino)methyl)-4-ethyl-4-hydroxy-3,14-dioxo-3,4,12,14-tetrahydro-1H-pyrano[3′,4′:6,7]indolizino[1,2-b]quinolin-9-yl (2S,5R)-4-(6-((4-((8S,11R,13S,14S,17R)-17-acetoxy-17-acetyl-13-methyl-3-oxo-2,3,6,7,8,11,12,13,14,15,16,17-dodecahydro-1H-cyclopenta[a]phenanthren-11-yl)phenyl)(methyl)amino)hexyl)-2,5-dimethylpiperazine-1-carboxylate] |  |  |  | 10 to 500 nM | 501 to 1000 nM | 10 to 500 nM | 
4 | CC[C@@]1(O)C(=O)OCc2c1cc1n(c2=O)Cc2cc3c(CN(C)C)c(OC(=O)N4C5CCC4CN(CCCCCCN(C)c4ccc([C@H]6C[C@@]7(C)[C@@H](CC[C@]7(OC(C)=O)C(C)=O)[C@@H]7CCC8=CC(=O)CCC8=C76)cc4)C5)ccc3nc2-1 [Compound 22, (S)-10-((Dimethylamino)methyl)-4-ethyl-4-hydroxy-3,14-dioxo-3,4,12,14-tetrahydro-1H-pyrano[3′,4′:6,7]indolizino[1,2-b]quinolin-9-yl 3-(6-((4-((8S,11R,13S,14S,17R)-17-acetoxy-17-acetyl-13-methyl-3-oxo-2,3,6,7,8,11,12,13,14,15,16,17-dodecahydro-1H-cyclopenta[a]phenanthren-11-yl)phenyl)(methyl)amino)hexyl)-3,8-diazabicyclo[3.2.1]octane-8-carboxylate] |  |  |  | 10 to 500 nM | 10 to 500 nM | 10 to 500 nM | 
5 | CC[C@@]1(O)C(=O)OCc2c1cc1n(c2=O)Cc2cc3c(CN(C)C)c(OC(=O)N4C[C@H](C)N(CCCCCCN(C)c5ccc([C@H]6C[C@@]7(C)[C@@H](CC[C@]7(OC(C)=O)C(C)=O)[C@@H]7CCC8=CC(=O)CCC8=C76)cc5)C[C@H]4C)ccc3nc2-1 [Compound 24, (S)-10-((Dimethylamino)methyl)-4-ethyl-4-hydroxy-3,14-dioxo-3,4,12,14-tetrahydro-1H-pyrano[3′,4′:6,7]indolizino[1,2-b]quinolin-9-yl (2R,5S)-4-(6-((4-((8S,11R,13S,14S,17R)-17-acetoxy-17-acetyl-13-methyl-3-oxo-2,3,6,7,8,11,12,13,14,15,16,17-dodecahydro-1H-cyclopenta[a]phenanthren-11-yl)phenyl)(methyl)amino)hexyl)-2,5-dimethylpiperazine-1-carboxylate] |  |  |  | 10 to 500 nM | 10 to 500 nM | 501 to 1000 nM | 
6 | CC[C@@]1(O)C(=O)OCc2c1cc1n(c2=O)Cc2cc3c(CN(C)C)c(OC(=O)N4CCN(C(=O)C5CCN(c6ccc(C(=O)N[C@H]7CC[C@H](Oc8ccc(C#N)c(Cl)c8)CC7)nn6)CC5)CC4)ccc3nc2-1 [Compound 26, (S)-10-((Dimethylamino)methyl)-4-ethyl-4-hydroxy-3,14-dioxo-3,4,12,14-tetrahydro-1H-pyrano[3′,4′:6,7]indolizino[1,2-b]quinolin-9-yl 4-(1-(6-(((1r,4r)-4-(3-chloro-4-cyanophenoxy)cyclohexyl)carbamoyl)pyridazin-3-yl)piperidine-4-carbonyl)piperazine-1-carboxylate] |  |  |  |  | 10 to 500 nM | > 1000 nM | GI50 (22Rv1 cells; 22Rv1, 144 h, read-out: 22RV1 (GI50, nM)): 10 to 500 nM
7 | CCc1c2c(nc3ccc(OC(=O)N4CCN(CCCCCCN(C)c5ccc([C@H]6C[C@@]7(C)[C@@H](CC[C@]7(OC(C)=O)C(C)=O)[C@@H]7CCC8=CC(=O)CCC8=C76)cc5)CC4)cc13)-c1cc3c(c(=O)n1C2)COC(=O)[C@]3(O)CC [Compound 4, (S)-4,11-diethyl-4-hydroxy-3,14-dioxo-3,4,12,14-tetrahydro-1H-pyrano[3′,4′:6,7]indolizino[1,2-b]quinolin-9-yl 4-(6-((4-((8S,11R,13S,14S,17R)-17-acetoxy-17-acetyl-13-methyl-3-oxo-2,3,6,7,8,11,12,13,14,15,16,17-dodecahydro-1H-cyclopenta[a]phenanthren-11-yl)phenyl)(methyl)amino)hexyl)piperazine-1-carboxylate] |  |  |  | 10 to 500 nM | 10 to 500 nM |  | 
8 | CC[C@@]1(O)C(=O)OCc2c1cc1n(c2=O)Cc2cc3c(CN(C)C)c(OC4CCN(CCCCCCCN(C)c5ccc([C@H]6C[C@@]7(C)C(CC[C@]7(OC(C)=O)C(C)=O)C7CCC8=CC(=O)CCC8=C76)cc5)CC4)ccc3nc2-1 (stereo partly drawn) [Compound 10, (11R,13S,17R)-17-Acetyl-11-(4-((7-(4-(((S)-10-((dimethylamino)methyl)-4-ethyl-4-hydroxy-3,14-dioxo-3,4,12,14-tetrahydro-1H-pyrano[3′,4′:6,7]indolizino[1,2-b]quinolin-9-yl)oxy)piperidin-1-yl)heptyl)(methyl)amino)phenyl)-13-methyl-3-oxo-2,3,6,7,8,11,12,13,14,15,16,17-dodecahydro-1H-cyclopenta[a]phenanthren-17-yl-acetate] |  |  | > 1000 nM | 10 to 500 nM | 10 to 500 nM |  | IC50 (AR): 10 to 500 nM
9 | CC[C@@]1(O)C(=O)OCc2c1cc1n(c2=O)Cc2cc3c(CN(C)C)c(OC4CCN(CCCCCCN(C)c5ccc([C@H]6C[C@@]7(C)C(CC[C@]7(OC(C)=O)C(C)=O)C7CCC8=CC(=O)CCC8=C76)cc5)CC4)ccc3nc2-1 (stereo partly drawn) [Compound 9, (11R,13S,17R)-17-Acetyl-11-(4-((6-(4-(((S)-10-((dimethylamino)methyl)-4-ethyl-4-hydroxy-3,14-dioxo-3,4,12,14-tetrahydro-1H-pyrano[3′,4′:6,7]indolizino[1,2-b]quinolin-9-yl)oxy)piperidin-1-yl)hexyl)(methyl)amino)phenyl)-13-methyl-3-oxo-2,3,6,7,8,11,12,13,14,15,16,17-dodecahydro-1H-cyclopenta[a]phenanthren-17-yl acetate] | 501 to 1000 nM | > 1000 nM | > 1000 nM |  |  |  | GI50 (T47D cells; T47D cells, 6 days, CellTiterGlo, read-out: T47D (GI50)): 10 to 500 nM; IC50 (AR; [5]): 10 to 500 nM
